Results as given in patent publication US20250129086A1, “COMPOUND FOR DEGRADING EGFR PROTEIN AND USE THEREOF” (TYK MEDICINES, INC., priority 2021, published 2025).

Legend:
Assay type in all cases: cell-based, human
[1] = tested on: HCC827 (exon 19 deletion mutation); assay: Cell antiproliferative assay (CTG, 72 h), HCC827; details: Homo sapiens, Table 2, HCC827 cells
Experimental: (§1) Test Example 1 Cell Antiproliferative Assay
(§2) H1975: with EGFR: L858R/T790M double mutation; PC-9 with EGFR exon 19 deletion, HCC827 with exon 19 deletion mutation. CellCounting-Lite2.0, Trypsin EDTA, 37° C. CO2 incubator, cell counter, EnVision Serial No.1050454. II. Experimental preparation:
(§3) • (A) Trypsin EDTA was used to digest log-phase cells, medium was added to terminate the reaction, and a cell suspension was made by blowing and mixing with a pipette. • (B) Cell concentration was determined using Vi-cell, and a suspension of 15,000-25,000 cells per milliliter was made depending on the purpose of the experiment and the characteristics of the cells. • (C) After the cell suspension was prepared, it was gently mixed and 100 microliters per well was added so that the density of cells to be tested was 1500-2500 per well.
(§4) • (A) About 2 mg of compound was weighed, and the volume of DMSO required was calculated according to the formula: compound mass (mg)*compound purity (%)/compound molecular weight*1000 • (B) The inoculated cell culture plates were incubated in an incubator and the compounds with concentration gradient were added after about 24 hours. • (C)10 Mm of compound stock solution was diluted to […] with medium, and 50 Mm of compound solution was added sequentially to the second column of the deep-well plate, and […] of medium containing 0.5% DMSO was added to the third to eleventh columns. • (D) Gradient dilution: 125 μl of solution was pipetted from the second column and added to the third column, after mixing; another 125 μl of solution was pipetted from the third column and added to the fourth column, and the operation was repeated until the tenth column. • (E)25 μl of compound was pipetted from the deep-well plate into a 96-well culture plate using a multichannel pipette, and each compound was repeated three times on the 96-well plate. A maximum concentration of 10,000 nm with concentration gradient of 1:4 was eventually formed on the 96-well plate.
(§5) • (A)96-well plates were incubated in an incubator for 72 h. The effect of the compounds was observed under an inverted microscope. • (B)25 μl of CTG solution was added to each well, the plate was put on shaker for 10 minutes and the […] of each well was read.
(§6) The cell viability rate (% Cell Viability) was calculated using the following formula: • % Cell Viability=100%×(Lum_Sample-Lum_LC)/(Lum_HC-Lum_LC) • Lum_HC: Cell reading of 0.1% DMSO control • Lum_Sample: Cell reading with compound added • Lum_LC: Reading of Blank media • IC50 values were obtained by curve fitting with GraphPad Prism 8 software.

[2] = tested on: H1975 (EGFR L858R/T790M double mutation); assay: Cell antiproliferative assay (CTG, 72 h), H1975
Experimental: as §1, §2, §3, §4, §5, §6

[3] = tested on: PC-9 (EGFR exon 19 deletion); assay: Cell antiproliferative assay (CTG, 72 h), PC-9; details: Homo sapiens, Table 2, PC-9 cells
Experimental: as §1, §2, §3, §4, §5, §6

[4] = Homo sapiens, NCI-H1975, 72 h, Table 2, H1975 cells

IC50 ([1]; HCC827, 72 h)	IC50 [2, 4]	IC50 ([3]; PC-9, 72 h)	Compound	other results
10 to 100 nM	10 to 100 nM	10 to 100 nM	COc1cc(N2CCN(C(=O)CN3CCC(c4ccc(NC5CCC(=O)NC5=O)cc4)CC3)CC2)c(C(F)(F)F)cc1Nc1ncc(Br)c(Nc2ccccc2C(C)=O)n1 (stereo not drawn) [Compound T-289]	–
100 to 1000 nM	100 to 1000 nM	100 to 1000 nM	C=CC(=O)Nc1cc(Nc2ncc(C(F)(F)F)c(Nc3ccccc3)n2)c(OC)cc1N1CCN(C(=O)CN2CCC(c3ccc(NC4CCC(=O)NC4=O)cc3)CC2)CC1 (stereo not drawn) [Compound T-339]	–
≥ 1000 nM	100 to 1000 nM	≥ 1000 nM	COc1cc(N2CCC[C@H](NC(=O)CN3CCC(c4ccc(NC5CCC(=O)NC5=O)cc4)CC3)C2)ccc1Nc1ncc(Cl)c(Nc2ccccc2C(C)=O)n1 (stereo partly drawn) [Compound T-166]	–
–	100 to 1000 nM	–	COc1nc(N2CCN(C(=O)CN3CCC(c4ccc(NC5CCC(=O)NC5=O)cc4)CC3)CC2)ccc1Nc1ncc(Cl)c(Nc2ccccc2C(C)=O)n1 (stereo not drawn) [Compound T-208]	–
≥ 1000 nM	100 to 1000 nM	≥ 1000 nM	COc1cc(N2CCN(C(=O)CN3CCC(c4ccc(NC5CCC(=O)NC5=O)cc4)CC3)C(C)C2)ccc1Nc1ncc(Cl)c(Nc2ccccc2)n1 (stereo not drawn) [Compound T-124]	–
100 to 1000 nM	10 to 100 nM	100 to 1000 nM	COc1cc(N2C[C@H]3CN(C(=O)CN4CCN(c5ccc(NC6CCC(=O)NC6=O)cc5)CC4)C[C@H]3C2)ccc1Nc1ncc(Cl)c(Nc2ccccc2C(C)=O)n1 (stereo partly drawn) [Compound T-189]	–
–	10 to 100 nM	–	CNC(=O)c1ccccc1Nc1nc(Nc2cc(CC(F)(F)F)c(N3CCN(C(=O)CN4CCC(c5ccc(NC6CCC(=O)NC6=O)cc5)CC4)CC3)cc2OC)ncc1Br (stereo not drawn) [Compound T-381]	–
10 to 100 nM	10 to 100 nM	10 to 100 nM	COc1cc(N2CCN(C(=O)CN3CCC(c4ccc(NC5CCC(=O)NC5=O)cc4)CC3)CC2)ccc1Nc1ncc(C(F)(F)F)c(Nc2ccccc2C(=O)NC2CCCC2)n1 (stereo not drawn) [Compound T-343]	–
–	100 to 1000 nM	–	COc1cc(N2CCN(CC(=O)NCCNc3cccc4c3C(=O)N(C3CCC(=O)NC3=O)C4=O)CC2)ccc1Nc1ncc(Cl)c(Nc2ccccc2C(C)=O)n1 (stereo not drawn) [Compound T-238]	–
10 to 100 nM	10 to 100 nM	10 to 100 nM	CNC(=O)c1ccccc1Nc1nc(Nc2cc(C)c(N3CCN(C(=O)CN4CCC(c5ccc(NC6CCC(=O)NC6=O)cc5F)CC4)CC3)cc2OC)ncc1Cl (stereo not drawn) [Compound T-367]	–
–	100 to 1000 nM	–	COC(=O)Nc1ccccc1Nc1nc(Nc2ccc(N3CCN(C(=O)CN4CCC(c5ccc(NC6CCC(=O)NC6=O)cc5)CC4)CC3)cc2OC)ncc1Cl (stereo not drawn) [Compound T-340]	–
–	10 to 100 nM	–	CNC(=O)c1ccccc1Nc1nc(Nc2cc(C)c(N3CCN(C(=O)CN4CCN(c5ccc(NC6CCC(=O)NC6=O)cc5)CC4)CC3)cc2OC)ncc1Cl (stereo not drawn) [Compound T-364]	–
100 to 1000 nM	10 to 100 nM	100 to 1000 nM	COc1cc(N2CCN(C(=O)CN3CCC(c4ccc(NC5CCC(=O)NC5=O)cc4)CC3)CC2)ccc1Nc1ncc(Cl)c(Nc2ccc(F)cc2C(C)(C)O)n1 (stereo not drawn) [Compound T-199]	–
100 to 1000 nM	100 to 1000 nM	100 to 1000 nM	COc1cc(N2CCN(CC(=O)N3CCC(c4ccc(NC5CCC(=O)NC5=O)cc4)CC3)CC2)ccc1Nc1ncc(Cl)c(Nc2ccccc2C(C)=O)n1 (stereo not drawn) [Compound T-338]	–
–	10 to 100 nM	–	CCc1cc(Nc2ncc(Cl)c(Nc3ccccc3C(=O)NC)n2)c(OC)cc1N1CCN(C(=O)CN2CCC(c3ccc(NC4CCC(=O)NC4=O)cc3)CC2)CC1 (stereo not drawn) [Compound T-361]	–
–	100 to 1000 nM	–	COC(=O)c1ccccc1Nc1nc(Nc2ccc(N3CCN(C(=O)CN4CCC(c5ccc(NC6CCC(=O)NC6=O)cc5)CC4)CC3)cc2OC)ncc1Cl (stereo not drawn) [Compound T-194]	–
10 to 100 nM	≤ 10 nM	10 to 100 nM	CNC(=O)c1ccccc1Nc1nc(Nc2cc(C(F)(F)F)c(N3CCN(C(=O)CN4CCC(c5ccc(NC6CCC(=O)NC6=O)cc5)CC4)CC3)cc2OC)ncc1Br (stereo not drawn) [Compound T-292]	–

IC50 ([1]; HCC827, 72 h)	IC50 [2, 4]	IC50 ([3]; PC-9, 72 h)	Compound	other results
100 to 1000 nM	100 to 1000 nM	≥ 1000 nM	COc1cc(N2CCN(C(=O)CN3CCC(c4ccc(NC5CCC(=O)NC5=O)cc4)CC3)CC2)ccc1Nc1ncc(Cl)c(Nc2ccccc2C#N)n1 (stereo not drawn) [Compound T-139]	–
–	–	–	COc1cc(N2CCN(C(=O)CN3CCC(c4ccc(NC5CCC(=O)NC5=O)cc4)CC3)CC2)ccc1Nc1ncc(Cl)c(Nc2ccccc2OC(=O)N(C)C)n1 (stereo not drawn) [Compound T-152]	IC50 [1]: ≥ 1000 nM; IC50 ([2]; Homo sapiens, NCI-H1975, Table 2, H1975 cells): 100 to 1000 nM; IC50 [3]: ≥ 1000 nM
100 to 1000 nM	10 to 100 nM	100 to 1000 nM	COc1cc(N2CCN(C(=O)CN3CCC(c4ccc(NC5CCC(=O)NC5=O)cc4)CC3)CC2)ccc1Nc1ncc(Cl)c(Nc2ccccc2NC(C)=O)n1 (stereo not drawn) [Compound T-195]	–
10 to 100 nM	10 to 100 nM	10 to 100 nM	CNC(=O)c1ccccc1Nc1nc(Nc2cc(C)c(N3CCN(C(=O)CN4CCC(c5ccc(NC6CCC(=O)NC6=O)cc5)CC4)C(C)C3)cc2OC)ncc1C(F)(F)F (stereo not drawn) [Compound T-357]	–
10 to 100 nM	≤ 10 nM	10 to 100 nM	CNC(=O)c1ccccc1Nc1nc(Nc2cc(C#N)c(N3CCN(C(=O)CN4CCC(c5ccc(NC6CCC(=O)NC6=O)cc5)CC4)CC3)cc2OC)ncc1Cl (stereo not drawn) [Compound T-283]	–
–	10 to 100 nM	–	CNC(=O)c1ccccc1Nc1nc(Nc2cc(CC(F)(F)F)c(N3CCN(C(=O)CN4CCC(c5ccc(NC6CCC(=O)NC6=O)cc5)CC4)CC3)cc2OC)ncc1Cl (stereo not drawn) [Compound T-377]	–
–	10 to 100 nM	–	CCc1cc(Nc2ncc(C(F)(F)F)c(Nc3ccccc3C(=O)NC)n2)c(OC)cc1N1CCN(C(=O)CN2CCC(c3ccc(NC4CCC(=O)NC4=O)cc3)CC2)CC1 (stereo not drawn) [Compound T-363]	–
–	100 to 1000 nM	–	COc1cc(N2CCN(C(=O)C3CCN(CC4CCN(c5ccc6c(c5)C(=O)N(C5CCC(=O)NC5=O)C6=O)CC4)CC3)CC2)ccc1Nc1ncc(Cl)c(Nc2ccccc2C(C)=O)n1 (stereo not drawn) [Compound T-204]	–
–	100 to 1000 nM	–	COc1cc(N2CCN(C(=O)CN3CCC(c4ccc5c(cnn5C5CCC(=O)NC5=O)c4)CC3)CC2)ccc1Nc1ncc(Cl)c(Nc2ccccc2)n1 (stereo not drawn) [Compound T-326]	–
–	10 to 100 nM	–	CCc1cc(Nc2ncc(Br)c(Nc3ccccc3C(=O)NC)n2)c(OC)cc1N1CCN(C(=O)CN2CCC(c3ccc(NC4CCC(=O)NC4=O)cc3)CC2)CC1 (stereo not drawn) [Compound T-362]	–
–	10 to 100 nM	–	CCNC(=O)c1ccccc1Nc1nc(Nc2ccc(N3CCN(C(=O)CN4CCC(c5ccc(NC6CCC(=O)NC6=O)cc5)CC4)CC3)cc2OC)ncc1Br (stereo not drawn) [Compound T-374]	–
–	100 to 1000 nM	–	COc1cc(N2CCN(C(=O)CNc3ccc4c(c3)C(=O)N(C3CCC(=O)NC3=O)C4=O)CC2)ccc1Nc1ncc(Cl)c(Nc2ccccc2C(C)=O)n1 (stereo not drawn) [Compound T-230]	–
–	100 to 1000 nM	–	COc1cc(N2CCN(CCCN3CCC(c4ccc(NC5CCC(=O)NC5=O)cc4)CC3)CC2)ccc1Nc1ncc(Cl)c(Nc2ccccc2C(C)=O)n1 (stereo not drawn) [Compound T-183]	–
–	–	–	CCc1cc(Nc2ncc(Cl)c(Nc3ccccc3C(=O)NC)n2)c(OC)cc1N1CCN(C(=O)CN2CCC(c3ccc(NC4CCC(=O)NC4=O)cc3)CC2)CC1 (stereo not drawn) [Compound T-375]	IC50 ([2]; Table 2, H1975 cells): 10 to 100 nM
–	100 to 1000 nM	–	COc1cc(N2CCN(C(=O)CN3CCN(c4ccc5c(c4)C(=O)N(C4CCC(=O)NC4=O)C5=O)CC3)CC2)ccc1Nc1ncc(Cl)c(Nc2ccccc2C(C)=O)n1 (stereo not drawn) [Compound T-201]	–
–	10 to 100 nM	–	CCc1cc(Nc2ncc(Cl)c(Nc3ccccc3C(C)=O)n2)c(OC)cc1N1CCN(C(=O)CN2CCC(c3ccc(NC4CCC(=O)NC4=O)cc3)CC2)CC1 (stereo not drawn) [Compound T-378]	–
